Measured values as given in patent US8865623B2, “Herbicidally active cyclic diones and derivatives thereof, processes for their preparation, compositions, and method of controlling weeds” (Syngenta Limited, priority 2009, dated 2014).

How the values were obtained:
Assay type in all cases: in vivo
[1] = system: Alopecurus myosuroides (ALOMY); experiment: Pre-emergence herbicidal activity, glasshouse pot test; details: Alopecurus myosuroides, 312 h; Rate 250 g/ha; pre-emergence spray; evaluated after 13 days; read-out: Pre-emergence activity ALOMY (100=total damage to plant; 0=no damage to plant)
Method in brief: (§1)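 Plants in standard-soil pots, glasshouse at 24/16° C, 14 h photoperiod, 65% humidity. Aqueous spray (acetone/water 50:50 formulation, 0.5% Tween 20) applied pre-emergence at day 1 or post-emergence at day 8. Percent damage recorded after 13 days.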

[2] = system: Avena fatua (AVEFA); experiment: as above; details: Avena fatua, 312 h; Rate 250 g/ha; pre-emergence spray; evaluated after 13 days; read-out: Pre-emergence activity AVEFA (100=total damage to plant; 0=no damage to plant)
Method in brief: as §1

[3] = system: Echinochloa crus-galli (ECHCG); experiment: as above; details: Echinochloa crus-galli, 312 h; Rate 250 g/ha; pre-emergence spray; evaluated after 13 days; read-out: Pre-emergence activity ECHCG (100=total damage to plant; 0=no damage to plant)
Method in brief: as §1

[4] = system: Lolium perenne (LOLPE); experiment: as above; details: Lolium perenne, 312 h; Rate 250 g/ha; pre-emergence spray; evaluated after 13 days; read-out: Pre-emergence activity LOLPE (100=total damage to plant; 0=no damage to plant)
Method in brief: as §1

[5] = system: Alopecurus myosuroides (ALOMY); experiment: Post-emergence herbicidal activity, glasshouse pot test; details: Alopecurus myosuroides, 312 h, rate 250 g/ha, evaluated after 13 days, glasshouse, read-out: Post-emergence activity ALOMY (100=total damage to plant; 0=no damage to plant)
Method in brief: as §1

[6] = system: Avena fatua (AVEFA); experiment: as above; details: Avena fatua, 312 h, rate 250 g/ha, evaluated after 13 days, glasshouse, read-out: Post-emergence activity AVEFA (100=total damage to plant; 0=no damage to plant)
Method in brief: as §1

[7] = system: Echinochloa crus-galli (ECHCG); experiment: as above; details: Echinochloa crus-galli, 312 h, rate 250 g/ha, evaluated after 13 days, glasshouse, read-out: Post-emergence activity ECHCG (100=total damage to plant; 0=no damage to plant)
Method in brief: as §1

[8] = system: Lolium perenne (LOLPE); experiment: as above; details: Lolium perenne, 312 h, rate 250 g/ha, evaluated after 13 days, glasshouse, read-out: Post-emergence activity LOLPE (100=total damage to plant; 0=no damage to plant)
Method in brief: as §1

Compound	pest or weed control at 250 g/ha [1]	pest or weed control at 250 g/ha [2]	pest or weed control at 250 g/ha [3]	pest or weed control at 250 g/ha [4]	pest or weed control at 250 g/ha [5]	pest or weed control at 250 g/ha [6]	pest or weed control at 250 g/ha [7]	pest or weed control at 250 g/ha [8]
CCc1ccc(Oc2ncc(C(F)(F)F)cc2Cl)cc1C1=C(O)C(C)(C)OC(C)(C)C1=O [Example A-45]	100%	100%	100%	100%	100%	100%	100%	100%
CCc1ccc(Oc2ccc(Cl)c(C)c2)cc1C1=C(O)C(C)(C)OC(C)(C)C1=O [Example A-184]	10%	0%	50%	50%	20%	0%	30%	30%
CCc1ccc(Oc2ccc(C(F)(F)F)c(Cl)c2)cc1C1=C(O)CC2(CCOCC2)CC1=O [Example A-278]	60%	70%	0%	70%	100%	100%	100%	100%
CCc1ccc(Oc2ccc([N+](=O)[O-])cc2)cc1C1=C(O)C(C)(C)OC(C)(C)C1=O [Example A-195]	30%	0%	100%	40%	60%	60%	100%	80%
CCc1ccc(Oc2ccc(Cl)c(F)c2)cc1C1=C(O)C(C)(C)CCC1=O [Example A-52]	40%	20%	60%	70%	30%	40%	90%	50%
CCc1ccc(Oc2ccc(Cl)cc2)cc1C1=C(O)CC2(CCOCC2)CC1=O [Example A-36]	90%	90%	100%	90%	100%	100%	100%	90%
CCc1ccc(Oc2ncc(C(F)(F)F)cc2F)cc1C1=C(O)CC(C)(C)CC1=O [Example A-285]	90%	70%	100%	100%	100%	100%	100%	100%
CCc1ccc(Oc2ccc(F)cc2)cc1C1=C(O)[C@H]2CC[C@H](C2)C1=O (single isomer, unassigned) [Example A-92]	40%	30%	100%	90%	20%	10%	80%	30%
CCc1ccc(Oc2ccc(Cl)c(F)c2)cc1C1=C(O)CC2(CCOCC2)CC1=O [Example A-66]	100%	90%	100%	80%	100%	100%	100%	80%
CCc1ccc(Oc2ccc(C(F)(F)F)c(C#N)c2)cc1C1=C(O)CC2(CCOCC2)CC1=O [Example A-266]	50%	50%	90%	90%	90%	90%	100%	70%
CCc1ccc(Oc2ncc(Cl)cc2[N+](=O)[O-])cc1C1=C(O)C(C)(C)OC(C)(C)C1=O [Example A-162]	30%	10%	60%	50%	80%	50%	90%	70%
